Experimental data taken from paper PMC8467136, “Enabling Efficient Folding and High-Resolution Crystallographic Analysis of Bracelet Cyclotides” (Molecules, 2021).
“And” between values parts separate entries of the source, which are not always exact repeats. Identical values can stand only once. Bridge positions count the residues as written; N and C are the ends. Peptide text beside a SMILES is read from it.

How the values were obtained:
[1] = tested on: HeLa cells; experiment: Cytotoxicity against HeLa cells, resazurin assay; type: cell-based; conditions: 5000 cells/well, 24-h incubation with peptide, then resazurin 18 h, triplicate, mean ± SEM
Description: To further confirm the activity of these mutants, their cytotoxicity against HeLa cancer cells was evaluated along with wild-type bracelet cyclotides. […] Of the four [I11G] mutants, the hyen D analogue had the highest activity, possibly because hyen D has one more hydrophobic residue in loop 3 compared to the other three cyclotides, which may contribute to its higher lipid-binding capacity (P/L max = 0.37) and help offset the hydrophobicity loss caused by the [I11G] mutation.
The cytotoxicity of the peptides was evaluated using the resazurin assay, as described previously. HeLa cells were seeded at 5000 cells/well in a 96-well, flat-bottomed plate one day prior to the experiments. Peptide solutions were prepared in water and incubated with HeLa cells at concentrations ranging from 16 to 0.125 μM or 8 to 0.063 μM in triplicate (final concentrations). Water and 1% Triton X-100 (TX) were applied as negative and positive control, respectively. After 24-h incubation, 10 μL of resazurin (0.05%, w/v) was added and incubated with cells for another 18 h. The absorbance was measured at 540 and 620 nm on a microplate reader (Infinite M1000 Pro microplate reader, Tecan, Switzerland). The percentage of cell death was quantified by calculating the absorbance ratio, R (R = absorbance at 620/540), and applying the following equation: % Cell death = (Rsample − RH2O)/(RTX − RH2O) × 100. Data were analyzed with GraphPad Prism software (version 8.3.1) using Specific binding with Hill slope algorithm.

[2] = tested on: POPC/POPE (80:20) model membrane; experiment: Membrane binding to POPC/POPE lipid bilayers by surface plasmon resonance (SPR); conditions: BIAcore T200, L1 chip, POPC/POPE (80:20) bilayer, 10 mM HEPES, 150 mM NaCl; for P/L Max, peptide-to-lipid maximum binding value: pH 7.4, injection 180 s, dissociation 600 s, nonlinear regression; for Kd: pH 7.4, nonlinear regression, read-out: KD, peptide concentration required to achieve half-maximum binding at equilibrium
Excerpt: Cyclotides are reported to exert their biological activities via membrane binding, particularly by selective binding to lipids containing phosphatidylethanolamine (PE) headgroups. Therefore, to evaluate the functional impact of the single mutation on bracelet cyclotides, the membrane-binding ability of these variants towards PE-containing lipid bilayers was examined using surface plasmon resonance (SPR). The model membrane comprising 80% 1-palmitoyloleoyl-phosphatidylcholine (POPC) and 20% 1-palmitoyloleoyl-phosphatidylethanolamine (POPE) was used. Binding affinity was evaluated by the peptide-to-lipid maximum binding value (P/L max, mol/mol) and the peptide concentration required to achieve half-maximum binding at equilibrium (KD value, μM). […] The negative effect of the [I11G] bracelet cyclotide mutation on lipid binding was expected, as the mutation reduces surface hydrophobicity, a previously reported determinant of membrane binding. The SPR dose-response curves and sensorgrams are shown in Figure S4 in Supplementary Material.
The binding affinity of bracelet cyclotides and their variants toward lipid bilayers was studied using SPR, as described previously. Two synthetic lipids, 1-palmitoyl-2-oleoyl-glycero-3-phosphocholine (POPC) and 1-palmitoyl-2-oleoyl-sn-glycero-3-phosphoethanolamine (POPE), were purchased from Avanti Polar Lipids (USA). Briefly, homogenous, small, unilamellar vesicles composed of POPC/POPE (80:20, mol/mol) were obtained by extruding the vesicle suspension through a 50-nm pore size polycarbonate membrane. L1 sensor chips and BIAcore T200 instrument were used (Cytiva, Marlborough, MA, USA). After the lipid was loaded and formed a bilayer membrane on the L1 chip, peptide solutions were injected over the lipid surface for 180 s and the dissociation was monitored for 600 s. Peptides were tested at concentrations ranging from 4–32 μM. Peptide-to-lipid molar ratio and KD values were calculated by nonlinear regression using GraphPad Prism software (version 8.3.1). Peptide solutions and lipid vesicles were prepared in HEPES buffer (10 mM HEPES, 150 mM NaCl, pH 7.4, filtered) for SPR studies.

Structure (SMILES) | CC50 on HeLa (half maximum cytotoxic concentration) [1] [µM] | P/L Max, peptide-to-lipid maximum binding value [2] | Kd [2] [µM]
CC[C@H](C)[C@@H]1NC(=O)[C@@H]2CSSC[C@@H]3NC(=O)[C@H](C(C)C)NC(=O)[C@H](CCCCN)NC(=O)[C@H](CC(=O)O)NC(=O)[C@H]([C@@H](C)O)NC(=O)[C@@H]4CSSC[C@H](NC(=O)[C@H](CO)NC(=O)[C@H](CCC(=O)O)NC(=O)CNC(=O)[C@H](CSSC[C@H](NC(=O)CNC(=O)[C@H]([C@@H](C)CC)NC(=O)[C@H](C(C)C)NC(=O)CNC(=O)[C@H](CO)NC1=O)C(=O)N[C@@H](CO)C(=O)N4)NC(=O)[C@@H]1CCCN1C(=O)[C@H]([C@@H](C)O)NC(=O)CNC(=O)[C@H](CC(N)=O)NC(=O)[C@H](CC(C)C)NC(=O)[C@H](Cc1ccc(O)cc1)NC3=O)C(=O)N[C@@H](C(C)C)C(=O)N[C@@H](Cc1ccc(O)cc1)C(=O)N[C@@H](CC(C)C)C(=O)N1CCC[C@H]1C(=O)N2 [[I11L]kB5] (cyclo(CGESCVYLPCISGVIGCSCTDKVCYLNGTP); disulfide 1-17, 5-19, 10-24) | 4.31 ± 0.48 | 0.22 ± 0.00 mol/mol | 4.95 ± 0.12
CC[C@H](C)[C@@H]1NC(=O)[C@H](C)NC(=O)[C@H](CO)NC(=O)[C@H](CO)NC(=O)[C@H]([C@@H](C)CC)NC(=O)[C@@H]2CSSC[C@@H]3NC(=O)[C@H](C(C)C)NC(=O)[C@H](CCCCN)NC(=O)[C@H](CO)NC(=O)[C@H](CCCCN)NC(=O)[C@@H]4CSSC[C@H](NC(=O)[C@H](CO)NC(=O)[C@H](CCC(=O)O)NC(=O)CNC(=O)[C@H](CSSC[C@H](NC(=O)CNC1=O)C(=O)N[C@@H](CO)C(=O)N4)NC(=O)[C@@H]1CCCN1C(=O)[C@H]([C@@H](C)CC)NC(=O)CNC(=O)[C@H](CC(N)=O)NC(=O)[C@H](CCCNC(=N)N)NC(=O)[C@H](Cc1ccc(O)cc1)NC3=O)C(=O)N[C@@H](C(C)C)C(=O)N[C@@H](Cc1c[nH]c3ccccc13)C(=O)N[C@@H]([C@@H](C)CC)C(=O)N1CCC[C@H]1C(=O)N2 [cyO2, cycloviolacin O2, reference compound] (cyclo(AIGCSCKSKVCYRNGIPCGESCVWIPCISS); disulfide 4-18, 6-22, 11-27) | 1.05 ± 0.06 | 0.28 ± 0.00 mol/mol | 3.9 ± 0.11
CC[C@H](C)[C@@H]1NC(=O)CNC(=O)[C@H](CC(N)=O)NC(=O)[C@H](CCCNC(=N)N)NC(=O)[C@H](Cc2ccc(O)cc2)NC(=O)[C@@H]2CSSC[C@@H]3NC(=O)[C@@H]4CCCN4C(=O)[C@H]([C@@H](C)CC)NC(=O)[C@H](Cc4c[nH]c5ccccc45)NC(=O)[C@H](C(C)C)NC(=O)[C@@H]4CSSC[C@H](NC(=O)[C@H](CO)NC(=O)[C@H](CSSC[C@H](NC(=O)[C@@H]5CCCN5C1=O)C(=O)NCC(=O)N[C@@H](CCC(=O)O)C(=O)N[C@@H](CO)C(=O)N4)NC(=O)CNC(=O)[C@H](C(C)C)NC(=O)[C@H](C)NC(=O)[C@H](CO)NC(=O)[C@H]([C@@H](C)O)NC(=O)[C@H](CC(C)C)NC3=O)C(=O)N[C@@H](CCCCN)C(=O)N[C@@H](CO)C(=O)N[C@@H](CCCCN)C(=O)N[C@@H](C(C)C)C(=O)N2 [cyO9, cycloviolacin O9, reference compound] (cyclo(AVGCSCKSKVCYRNGIPCGESCVWIPCLTS); disulfide 4-18, 6-22, 11-27) | 2.35 ± 0.13 | 0.30 ± 0.01 mol/mol | 4.83 ± 0.17
CC[C@H](C)[C@@H]1NC(=O)[C@H](C)NC(=O)[C@H](C)NC(=O)[C@H]([C@@H](C)O)NC(=O)[C@H](Cc2ccccc2)NC(=O)[C@@H]2CSSC[C@@H]3NC(=O)[C@H](C(C)C)NC(=O)[C@H](CCCCN)NC(=O)[C@H](CO)NC(=O)[C@H](CCCCN)NC(=O)[C@@H]4CSSC[C@H](NC(=O)[C@H](CO)NC(=O)[C@H](CCC(=O)O)NC(=O)CNC(=O)[C@H](CSSC[C@H](NC(=O)CNC1=O)C(=O)N[C@@H](CO)C(=O)N4)NC(=O)[C@@H]1CCCN1C(=O)[C@H](Cc1ccccc1)NC(=O)CNC(=O)[C@H](CC(N)=O)NC(=O)[C@H](CCCCN)NC(=O)[C@H](Cc1ccc(O)cc1)NC3=O)C(=O)N[C@@H](C(C)C)C(=O)N[C@@H](Cc1ccc(O)cc1)C(=O)N[C@@H]([C@@H](C)CC)C(=O)N1CCC[C@H]1C(=O)N2 [hyen D, reference compound] (cyclo(AAIGCSCKSKVCYKNGFPCGESCVYIPCFT); disulfide 5-19, 7-23, 12-28) | 0.85 ± 0.03 | 0.37 mol/mol and 0.37 ± 0.01 mol/mol | 4.48 ± 0.17
CC[C@H](C)[C@@H]1NC(=O)[C@@H]2CSSC[C@@H]3NC(=O)[C@H](C(C)C)NC(=O)[C@H](CCCCN)NC(=O)[C@H](CC(=O)O)NC(=O)[C@H]([C@@H](C)O)NC(=O)[C@@H]4CSSC[C@H](NC(=O)[C@H](CO)NC(=O)[C@H](CCC(=O)O)NC(=O)CNC(=O)[C@H](CSSC[C@H](NC(=O)CNC(=O)[C@H]([C@@H](C)CC)NC(=O)[C@H](C(C)C)NC(=O)CNC(=O)[C@H](CO)NC1=O)C(=O)N[C@@H](CO)C(=O)N4)NC(=O)[C@@H]1CCCN1C(=O)[C@H]([C@@H](C)O)NC(=O)CNC(=O)[C@H](CC(N)=O)NC(=O)[C@H](CC(C)C)NC(=O)[C@H](Cc1ccc(O)cc1)NC3=O)C(=O)N[C@@H](C(C)C)C(=O)N[C@@H](Cc1ccc(O)cc1)C(=O)N[C@@H]([C@@H](C)CC)C(=O)N1CCC[C@H]1C(=O)N2 [kB5, kalata B5, reference compound] (cyclo(CGESCVYIPCISGVIGCSCTDKVCYLNGTP); disulfide 1-17, 5-19, 10-24) | 3.11 ± 0.20 | 0.22 ± 0.00 mol/mol | 5.02 ± 0.17
